In ChEMBL document CHEMBL1649561, “H-NS modulates multidrug resistance of Salmonella enterica serovar Typhimurium by repressing multidrug efflux genes acrEF” (2009) one finds MIC data, which are given here for six molecules.

The structures appear in SMILES notation. Converted amounts (≈) assume the structure as drawn. Bounds are passed on as bounds.

Format in all cases: functional
Assay [1] deals with Salmonella enterica. Put plainly: Antibacterial activity against Salmonella enterica ATCC 14028 by CLSI method.
Assay [2] deals with Salmonella enterica. As to the kind of experiment: Antibacterial activity against acrB-deficient Salmonella enterica NKS175 by CLSI method.
The subject of assay [3] is Salmonella enterica. Put plainly: Antibacterial activity against acrB-deficient Salmonella enterica NKS291 harboring hns gene by CLSI method.
Assay [4] relates to Salmonella enterica. Put plainly: Antibacterial activity against tolC-deficient Salmonella enterica NKS174 by CLSI method.
In assay [5] the test system is Salmonella enterica. As to the kind of experiment: Antibacterial activity against tolC-deficient Salmonella enterica NKS419 harboring hns gene by CLSI method.
The test system of assay [6] is Salmonella enterica. Put plainly: Antibacterial activity against acrEF-deficient Salmonella enterica NKS176 by CLSI method.
Assay [7] has as its system Salmonella enterica. Put plainly: Antibacterial activity against acrB-deficient Salmonella enterica NKS422 harboring acrEF gene by CLSI method.
Assay [8] deals with Salmonella enterica. As to the kind of experiment: Antibacterial activity against acrB-deficient Salmonella enterica NKS416 harboring acrEF, hns gene by CLSI method.

`CC/N=c1\cc2oc3cc(NCC)c(C)cc3c(-c3ccccc3C(=O)OCC)c-2cc1C.Cl` [RHODAMINE 6G HYDROCHLORIDE]: the MIC in assay [1] was > 512 µg/mL; in assay [2], 8 µg/mL; in assay [3], 32 µg/mL; in assay [4] it was 8 µg/mL; in assay [5], 8 µg/mL; in assay [6], > 512 µg/mL. Besides, the MIC in assay [7] and in assay [8] was 8 µg/mL throughout.

Take `CN(C)c1ccc2nc3ccc(N(C)C)cc3[s+]c2c1.[Cl-]` [METHYLENE BLUE ANHYDROUS]: the MIC in assay [1] was > 512 µg/mL; in assay [2], 16 µg/mL; in assay [3] it was 512 µg/mL; in assay [4], 16 µg/mL; in assay [5], 16 µg/mL; in assay [6], > 512 µg/mL. The MIC in assay [7] and in assay [8] was 16 µg/mL throughout.

On to `Cn1nnnc1SCC1=C(C(=O)O)N2C(=O)[C@@H](NC(=O)[C@H](O)c3ccccc3)[C@H]2SC1` [CEFAMANDOLE], for which the MIC in assay [1] amounted to 1 µg/mL (≈ 2.16 µM); in assay [2], 0.063 µg/mL (≈ 0.136 µM); in assay [3], 0.25 µg/mL (≈ 0.541 µM); in assay [4], 0.063 µg/mL (≈ 0.136 µM); in assay [5] it was 0.063 µg/mL (≈ 0.136 µM); in assay [6], 0.5 µg/mL (≈ 1.08 µM). Besides, the MIC in assay [7] and in assay [8] was 0.063 µg/mL (≈ 0.136 µM) throughout.

With `Cc1onc(-c2ccccc2Cl)c1C(=O)N[C@@H]1C(=O)N2[C@@H]1SC(C)(C)[C@@H]2C(=O)O` [CLOXACILLIN], the MIC in assay [1] came to 512 µg/mL (≈ 1170 µM); in assay [2] it was 4 µg/mL (≈ 9.18 µM); in assay [3], 128 µg/mL (≈ 294 µM); in assay [4], 0.5 µg/mL (≈ 1.15 µM); in assay [5], 0.5 µg/mL (≈ 1.15 µM); in assay [6] it was 512 µg/mL (≈ 1170 µM). The MIC in assay [7] and in assay [8] was 4 µg/mL (≈ 9.18 µM) each time.

As to `CCOc1ccc2ccccc2c1C(=O)N[C@@H]1C(=O)N2[C@@H]1SC(C)(C)[C@@H]2C(=O)O` [NAFCILLIN], the MIC was > 512 µg/mL in assay [1]; 8 µg/mL (≈ 19.3 µM) in assay [2]; 64 µg/mL (≈ 154 µM) in assay [3]; 1 µg/mL (≈ 2.41 µM) in assay [4]; 1 µg/mL (≈ 2.41 µM) in assay [5]; > 512 µg/mL in assay [6]. Also, the MIC in assay [7] and in assay [8] was 4 µg/mL (≈ 9.65 µM) in each case.

In the case of `Cc1onc(-c2ccccc2)c1C(=O)N[C@@H]1C(=O)N2[C@@H]1SC(C)(C)[C@@H]2C(=O)O` [OXACILLIN], the MIC in assay [1] is 512 µg/mL (≈ 1280 µM); in assay [2], 2 µg/mL (≈ 4.98 µM); in assay [3], 16 µg/mL (≈ 39.9 µM); in assay [4], 0.5 µg/mL (≈ 1.25 µM); in assay [5], 0.5 µg/mL (≈ 1.25 µM); in assay [6], 512 µg/mL (≈ 1280 µM). Besides, the MIC in assay [7] and in assay [8] was 1 µg/mL (≈ 2.49 µM) in each case.
